Laboratory results: patent US8058236B2, “Aqueous inhalation pharmaceutical composition” (Development Center for Biotechnology, priority 2005, dated 2011)

Experiments:
Sprague-Dawley male rats [1] = assay: In vivo bioavailability study: plasma glucose decrease after pulmonary administration to rats; design: species or system rat; details: enhancer added to insulin formulation
Protocol: Sprague-Dawley male rats weighted 200-250 g were randomly divided into 7 groups. According to the method disclosed in Enna, S. T. et al. (J. Physiol., 1972, 222: 409-414), after the rats were narcotized by abdominally injecting pentobarbital sodium (28.6 ml/kg), catheters were inserted into the trachea and the left femoral artery, respectively, from the cut neck. Group 1 was the control group, wherein each rat was administered with Formulation A only.
The collected blood samples were centrifuged at 3000 rpm in 4° C. for 15 minutes. The upper layer of the plasma was collected. […] The concentrations of insulin in the upper layer samples of plasma were determined by the utilization of a Rat Insulin ELISA Kit (Mercodia), and the pharmacokinetic parameters of the absorption enhancers were further analyzed.

Sprague-Dawley male rats [2] = assay type: in vivo, rat; details: absorption enhancer in insulin formulation, pulmonary administration
Protocol: Sprague-Dawley male rats weighted 200-250 g were randomly divided into 7 groups. […] Group 1 was the control group, wherein each rat was administered with Formulation A only.
After administering the formulations to the lung for 0, 5, 15, 30, 60, 90, 120, 180, 240, and 300 minutes, 0.25 ml of blood sample was collected from each rat. After the pulmonary administration for 5 hours, an excess amount of pentobarbital sodium (3 ml) was injected into the femoral artery of the rats. After 5 minutes, the rats were bled and then pulmonary perfusion with phosphate buffer solution was performed.
The collected first 5 ml pulmonary perfusion samples were centrifuged at 350×g in 4° C. for 10 minutes. […]
Based on the pigmentation principle of Biuret reaction (British Pharmacopoeia, p. A23 (1998)), the amount of total protein was determined by measuring the value of OD546 with Autoanalyzer Hitachi 7150; then, the value was converted into the concentration of the protein (the results are shown in Table 3).
Based on the standard operation procedures of the GSCC (German Society of Clinical Chemistry; Recommendation of the German Society for Clinical Chemistry: Z. Klin. Chem. Klin. Biochem., 10, 287-288, 1972), the activity of LDH was determined by measuring the change of OD340 with Autoanalyzer Hitachi 7150; then, the change was converted into the activity of LDH (the results are shown in Table 3).

Molecule	bioavailability of insulin, maximal increase by addition of absorption enhancer (Sprague-Dawley male rats [1]) [%]	toxic side effects in the lung (Sprague-Dawley male rats [2])
CCCCCCCC/C=C\CCCCCCCC(=O)OCCOCC(OCCO)C1OCC(OCCO)C1OCCO (stereo not drawn) [Tween-80]	84.6	would not induce toxic side effects in the lung
LPTC-lauroyl [L-LPTC]	–	would not induce toxic side effects in the lung
